For series [1] the following is noted: cited from earlier work; for physical stability of the crystalline form: prior art forms of U.S. Pat. No. 7,342,117.
A further series can be described thus: physchem. As to conditions: 25 °C, water.

As for `Cl.Cl.Nc1nc(CC(=O)Nc2ccc(CCNCC(O)c3ccccc3)cc2)cs1` (stereo not drawn), the “hygroscopicity and stability of the crystalline salt” value in series [1] (as demonstrated in U.S. Pat. No. 7,342,117) is “highly hygroscopic and unstable”.

Turning to `Nc1nc(CC(=O)Nc2ccc(CCNC[C@H](O)c3ccccc3)cc2)cs1` [Crystalline form α of Mirabegron, (R)-2-(2-Aminothiazol-4-yl)-4′-[2-[(2-hydroxy-2-phenylethyl)amino]ethyl]acetanilide], in series [1], the “physical stability of the crystalline form” value is “stable solid form”. Further, the “solubility in water (in words)” value in the series “solubility in water” is “practically insoluble in water”. One may read the solubility as the concentration that dissolves in the medium under given conditions. The low end stands for a poorly soluble substance, the high end for a readily soluble substance. For the compound `CC(=O)O.Nc1nc(CC(=O)Nc2ccc(CCNC[C@H](O)c3ccccc3)cc2)cs1` [Mirabegron acetate salt, 2-(2-amino-1,3-thiazol-4-yl)-N-[4-(2-{[(2R)-2-hydroxy-2-phenylethyl]amino}ethyl)phenyl]acetamide acetate salt], the solubility in “physchem” was around 100 mg/mL.

For the compound `Nc1nc(CC(=O)Nc2ccc(CCNC[C@H](O)c3ccccc3)cc2)cs1` [Mirabegron base, (R)-2-(2-Aminothiazol-4-yl)-4′-[2-[(2-hydroxy-2-phenylethyl)amino]ethyl]acetanilide], the “solubility in water (in words)” value in “solubility in water” is reported as “almost wholly insoluble in water”. As for `Nc1nc(CC(=O)Nc2ccc(CCNC[C@H](O)c3ccccc3)cc2)cs1` [form β, (R)-2-(2-Aminothiazol-4-yl)-4′-[2-[(2-hydroxy-2-phenylethyl)amino]ethyl]acetanilide], the “physical stability of the crystalline form” value in series [1] is reported as “metastable polymorph”.

The record behind these values is patent publication US20150111934A1, “CRYSTALLINE FORMS OF AN ADRENERGIC AGONIST” (DIPHARMA FRANCIS S.R.L., priority 2013, published 2015).
